Test results from US20200163913A1 (Shanghai Huali Biomedical Co., Ltd., priority 2017, published 2020).
Like-named read-outs stand apart in the source and are kept apart here.

Assays:
[1] = test system: human cervical cancer cell HeLa; experiment: CCK-8 cell proliferation inhibition, HeLa; format: cell-based
Protocol: (§1) Take more than 90% of live cells for experiments. Cell proliferation inhibition test uses EnoGeneCell™ Counting Kit-8 (CCK-8) cell viability detection kit. Cells are digested and counted to make a cell suspension with a concentration of 1×10^5 cells/mL, 100 μL of cell suspension (1×10^4 cells per well) was added to each well of a 96-well plate; Incubate in a 5% CO2 incubator for 24 hours; add 100 μL of the corresponding drug-containing culture medium to each well, and set a negative control group, a vehicle control group, and a positive control group, with 5 replicates in each group; place the 96-well plate at 37° C.

[2] = test system: human lung cancer cell A549; experiment: CCK-8 cell proliferation inhibition, A549; format: cell-based
Protocol: as §1

[3] = test system: human colon cancer cell HCT-116; experiment: CCK-8 cell proliferation inhibition, HCT-116; format: cell-based
Protocol: as §1

[4] = test system: human liver cancer cell HepG2; experiment: CCK-8 cell proliferation inhibition, HepG2; format: cell-based; details: read-out: IC50 HepG2
Protocol: as §1

[5] = test system: human gastric cancer cell MKN45; experiment: CCK-8 cell proliferation inhibition, MKN45; format: cell-based; details: read-out: IC50 MKN45
Protocol: as §1

[6] = test system: human gastric cancer cell MGC-803; experiment: CCK-8 cell proliferation inhibition, MGC-803; format: cell-based; details: read-out: IC50 MGC803
Protocol: as §1

Arylsulfatase = Arylsulfatase activity assay in vitro; format: biochemical; details: p-nitrophenyl sulfate substrate, 405 nm; read-out: IC50 sulfatase
Protocol: Weigh an appropriate amount of the test compound and dissolve it in dimethyl sulfoxide. Dilute it with Tris-HCl buffer for 2, 5, 10, 20, 50, 100, 200, 500, 1000, 2000, 5000, and 10,000 times. Add another dilution gradient to the sample. Arylsulfatase and potassium p-nitrophenyl sulfate are directly dissolved in Tris-HCl buffer. 40 μL of the test compound, 50 μL of arylsulfatase and 50 μL of potassium p-nitrobenzene sulfate were added to a 96-well plate for reaction. A blank control without enzymes and a standard control without test compounds are used. The volume is made up with Tris-HCl buffer. 405 nm detection in the microplate reader, each sample is measured for 40 times, and the interval is 30 s. The representative time node within the time period with good linearity of the absorbance value are selected for data analysis. The measured absorbance value are subtracted from the background value of the blank control and the initial value when the reaction time are 0. For comparison, calculate the inhibition rate at different concentrations, and use the built-in forecast function of excel to predict the IC50 value.

Tubulin = Tubulin polymerization activity test; format: biochemical; details: tubulin 4.8 mg/ml, 37° C., 340 nm; read-out: IC50 (Table 3, tubulin polymerization test)
Protocol: Tubulin (4.8 mg/ml) protein was mixed with the test compound in a PEM buffer (100 mM PIPES, 1 mM MgCl2 and 1 mM EGTA) containing 1 mM GTP and 5% glycerol. A SPECTRA MAX 190 (Molecular Device) spectrophotometer was used to monitor the microtubule polymerization at 37° C. by light scattering at 340 nm, and the microtubule polymerization was calculated from the absorbance value. Each sample was tested three times at ten different concentrations.

sarcoma S180 = experiment: Tumor inhibition rate on sarcoma S180 mouse transplantation tumor; format: in vivo, mice; details: for tumor observation: 8th day after administration; for Inhibition rate (tumor weight): dose 25 mg/kg, d0-d12 7 times, sacrifice day 14
Description: After 1 week of adaptation, the mice were inoculated subcutaneously with sarcoma S180 tumor tissue. After the tumor grew 100-300 mm3, the animals were randomly divided into groups.

[7] = Acute toxicity test of single intragastric administration of mice; details: both sexes, Kunming, mouse, in vivo, po, 14 days observation
Protocol: Kunming mice (body weight: 17-22 g, male and female), randomly divided according to body weight. […] The doses were 150, 130, 120, 110, 100, 90, 80, 70, 60, 50, 40, 30 mg/kg by single intragastric administration, 0.25 h, 0.5 h, 1 h, 2 h after administration Observe once every 4 h, 24 h, and then record the mortality, then observe it once a day, record the mortality for 14 days, and sacrifice the undead mice on the 15th day for pathological dissection.

[8] = Homo sapiens, HeLa, 72 h, CCK-8, 72 h, read-out: IC50 Hela
[9] = Homo sapiens, HeLa, read-out: IC50 HeLa
[10] = A549, CCK-8, 72 h, read-out: IC50 A549
[11] = Homo sapiens, HCT-116, 72 h, CCK-8, 72 h, read-out: IC50 HTC116
[12] = Homo sapiens, HCT-116, running text, read-out: IC50 HCT-116
[13] = Homo sapiens, HepG2, 72 h, CCK-8, 72 h
[14] = Homo sapiens, HepG2, running text

Row | Compound | IC50 [1, 8] | IC50 [1, 9] | IC50 [2, 10] | IC50 ([2]; A549, read-out: IC50 A549) | IC50 [3, 11] | IC50 [3, 12] | IC50 [4, 13] | IC50 [4, 14] | IC50 ([5]; MKN-45, 72 h, CCK-8, 72 h) | IC50 ([5]; MKN-45, running text) | IC50 ([6]; MGC-803, 72 h, CCK-8, 72 h) | IC50 ([6]; MGC-803, running text) | IC50 (Arylsulfatase) | IC50 (Tubulin) | tumor observation (sarcoma S180) | Inhibition rate (tumor weight) (sarcoma S180) | LD50 at 14 days [7] | IC50 ([1]; listed as (Z)-3,4,5-trimethoxy-4′-ethoxy-3′-aminosulfamatestilbene, read-out: IC50 HeLa) | IC50 ([3]; listed as (Z)-3,4,5-trimethoxy-4′-ethoxy-3′-aminosulfamatestilbene, read-out: IC50 HCT-116) | IC50 ([4]; listed as (Z)-3,4,5-trimethoxy-4′-ethoxy-3′-aminosulfamatestilbene)
1 | COc1ccc(/C=C\c2cc(OC)c(OC)c(OC)c2)cc1OS(N)(=O)=O [Compound A1-1, (Z)-3,4,5-trimethoxy-4′-methoxy-3′-sulfamate stilbene] | 458 nM | 340 nM | 481 nM | < 500 nM | 222 nM | 222 nM | 335 nM | < 1000 nM | 599 nM | < 600 nM | 298 nM | < 600 nM | 6160 nM | 6600 nM | shrinking trend | 42% | 106 mg/kg |  |  | 
2 | CCOc1ccc(/C=C\c2cc(OC)c(OC)c(OC)c2)cc1OS(N)(=O)=O [Compound A2-1, (Z)-3,4,5-trimethoxy-4′-ethoxy-3′-sulfamate stilbene] | 480 nM | 480 nM | 229 nM | < 500 nM | 446 nM | 446 nM | 412 nM | < 1000 nM | 325 nM | < 500 nM | 267 nM | < 500 nM |  |  | shrinking trend | 40% | 101 mg/kg | < 500 nM | < 500 nM | < 500 nM
